Results taken from publication PMC5556071, “ATR inhibition facilitates targeting of leukemia dependence on convergent nucleotide biosynthetic pathways” (Nature Communications, 2017).

Key:
CHEK1 pS345 = assay: Western blot of replication stress marker in CEM cells; assay type: cell-based, human
Method: Cells were lysed using RIPA buffer supplemented with protease (ThermoFisher, 78,430) and phosphatase (ThermoFisher, 78,420) inhibitors, scraped, sonicated, and centrifuged (20,000 × g at 4 °C). Protein concentrations in the supernatant were determined using the Micro BCA Protein Assay kit (Thermo), and equal amounts of protein were resolved on pre-made Bis-Tris polyacrylamide gels (Life Technologies). Primary antibodies: pS345 CHEK1 (Cell signaling, #2348 L, 1:1000), pT68 CHEK2 (Cell signaling, #2197 S, 1:1000), pS139 H2A.X (Millipore, 05-636, 1:1000), clvd. Casp8 (Cell signaling, #8592, 1:1000), clvd. Casp9 (Cell signaling, #9502, 1:1000), clvd. Casp3 (Cell signaling, #9662, 1:1000), clvd. PARP (Cell signaling, #5625 P, 1:1000), and anti-actin (Cell Signaling Technology, 9470, 1:10,000). Primary antibodies were stored in 5% BSA (Sigma-Aldrich) and 0.1% NaN3 in TBST solution. Anti-rabbit IgG HRP-linked (Cell Signaling Technology, 7074, 1:2500) and anti-mouse IgG HRP-linked (Cell Signaling Technology, 7076, 1:2500) were used as secondary antibodies. Chemiluminescent substrates (ThermoFisher Scientific, 34,077 and 34,095) and autoradiography film (Denville) were used for detection.

p185BCR-ABL Arf–/– cells = assay: Proliferation assay (CellTiter-Glo, 72 h); assay type: cell-based; settings: Mus musculus
Method: (§1) Cells were plated in 384-well plates (1000 cells/well for suspension cell lines and 500 cells/well for adherent cell lines in 30 µl volume). Drugs were serially diluted to the desired concentrations and an equivalent volume of DMSO was added to vehicle control. Ten microliter of the 4× diluted drugs were added to each well. Following 72 h incubation, ATP content was measured using CellTiter-Glo reagent according to manufacturer’s instructions (Promega, CellTiter-Glo Luminescent Cell Viability Assay), and analyzed by SpectraMax luminometer (Molecular Devices). IC50 values, concentrations required to inhibit proliferation by 50% compared to DMSO treated cells, were calculated using Prism 6.0 h (Graphpad Software).

ATR = test system: ATR; design: method as in earlier work; settings: ref #35, Fokas et al., 2014; cited from earlier work
dCK pS74 = assay: Phosphoproteomic nLC-MS/MS analysis of dCK phosphorylation; assay type: cell-based, human; design: key to dCK pS74: ↓: partial decrease/inhibition; ↓↓↓: nearly complete inhibition; ↑: increase; ⟷: no change
Method: against both the Uniprot human FASTA database and a decoy database of the Uniprot human database which read from C-terminus to N-terminus; Percolator was used to filter the data at 1% FDR at both the peptide and […]
Phosphoproteomic analyses. CCRF-CEM cells were prepared same as the asynchronous CEM cells total protein digests above, except that a total of 7.5 mg total protein from 1 x 10^8 cells was collected per treatment condition for phosphoproteomic analysis. tC18 Sep-Pak cartridges (Waters) were used for peptide desalting and Pierce Quantitative Colorimetric Peptide Assay was performed prior to phosphopeptide enrichment.
Hydrophilic interaction chromatography (HILIC) and immobilized metal affinity chromatography (IMAC) were performed same as previously described4. Data dependent nLC-MS/MS was performed on Thermo QExactive Plus same as above. […] Identified phosphopeptides were manually quantified by area-based extracted ion chromatograms of the monoisotopic peak. […]

CEM cells = assay: Proliferation assay (CellTiter-Glo, 72 h); assay type: cell-based, human
Method: as §1

| SMILES | CHEK1 pS345 induced by RNR inhibition (CHEK1 pS345; 0.5 h time point) | CHEK1 pS345 induced by RNR inhibition (CHEK1 pS345; 4 h time point) | CHEK1 pS345 levels (CHEK1 pS345; CEM cells, VE-822 1 µM, 24 h) | IC50 (p185BCR-ABL Arf–/– cells) | cellular selectivity for ATR compared to other members of the PIKK family (including ATM and DNA-PK) (ATR) | decrease in dCK pS74 (fold) (dCK pS74; VE-822-treated leukemia cells) | dCK pS74 (dCK pS74; summary Fig. 2g, CEM cells) | IC50 (CEM cells) |
| --- | --- | --- | --- | --- | --- | --- | --- | --- |
| CNCc1ccc(-c2cc(-c3nc(-c4ccc(S(=O)(=O)C(C)C)cc4)cnc3N)on2)cc1 [VE-822] | abrogated | partially inhibited | reduced | ~300 nM | > 100 fold | two-fold | ↓ | – |
| NC(=S)N/N=C/c1ncccc1N [3-AP] | – | – | – | – | – | – | – | 1060 nM |
